Results from patent US12528761B2, “Thyromimetics” (Autobahn Therapeutics, Inc., priority 2020, dated 2026).

molecular target: T1, recombinant human FAAH (rhFAAH) (Homo sapiens, UniProt O00519); assay: FAAH substrate evaluation (formation of acid metabolite, LC-MS/MS); assay type: biochemical; design: key: A: ke is equal to or less than 1.0; B: ke is greater than 1.0 and less than or equal to 2.5; C: ke is greater than 2.5; NC: no conversion; conditions: 0.5 ng/μL rhFAAH, 1 μM test compound, pH 8.0, room temperature, 0-60 minutes
T1 construct: purchased Cayman Chemical (Ann Arbor, MI, USA)
T1 sequence (O00519 1-579): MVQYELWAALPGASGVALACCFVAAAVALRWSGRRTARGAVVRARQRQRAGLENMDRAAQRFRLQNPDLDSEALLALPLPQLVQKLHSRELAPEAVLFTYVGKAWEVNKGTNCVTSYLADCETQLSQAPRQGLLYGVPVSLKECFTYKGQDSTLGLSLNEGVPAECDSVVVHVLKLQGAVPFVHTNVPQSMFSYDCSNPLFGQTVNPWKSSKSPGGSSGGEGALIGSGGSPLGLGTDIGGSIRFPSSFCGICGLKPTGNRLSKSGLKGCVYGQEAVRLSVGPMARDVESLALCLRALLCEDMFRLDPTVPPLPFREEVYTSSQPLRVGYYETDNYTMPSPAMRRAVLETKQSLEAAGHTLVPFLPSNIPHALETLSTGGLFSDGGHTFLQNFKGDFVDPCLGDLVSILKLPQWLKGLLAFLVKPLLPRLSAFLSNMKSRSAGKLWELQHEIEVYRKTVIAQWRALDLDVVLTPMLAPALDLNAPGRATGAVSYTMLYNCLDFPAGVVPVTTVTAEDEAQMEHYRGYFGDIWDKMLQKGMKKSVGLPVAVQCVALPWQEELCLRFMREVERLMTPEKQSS
Protocol: Purified recombinant human FAAH (rhFAAH) was purchased from Cayman Chemical (Ann Arbor, MI, USA). The total volume for each incubation was 400 μL containing a final 0.5 ng/μL rhFAAH, 1 μM test compound, 1.25% ethanol or 1 μM PF-3845 (FAAH inhibitor), and 0.1% bovine serum albumin in Tris-EDTA buffer at pH 8.0). The positive control was LL-341001. The incubation was conducted at the room temperature. At 0, 5, 15, 30 and 60 minutes, an aliquot of 30 μL reaction mixtures was removed and mixed with 300 μL acetonitrile containing 5 ng/mL terfenadine and 10 ng/mL tolbutamide as internal standards to quench the reaction. The resulting mixture was centrifuged at 4000 rpm, 4° C. for 15 minutes, and 100 μL supernatant was ready for LC-MS/MS analysis to measure the formation of acid metabolite.
Acquity Ultra Performance LC system from Waters was used for sample analysis. The chromatography was performed on a reverse phase Kinetex 2.6 μm C18 column, 2.1×30 mm, 100 Å. The mobile phase A comprised of 0.1% formic acid in water and mobile phase B comprised of 0.1% formic acid in acetonitrile with a 2-min run time at the flow rate of 0.8 mL/min for the acid metabolite from positive control or a 1.5 min run time at the flow rate of 0.9 mL/min for the acid metabolite of test compounds. The mass spectrometer (API-5500 and API Q Trap 4000 Applied Biosystems/MDS SCIEX Instruments, Framingham, MA, USA) was operated under ESI positive or negative ion MRM mode.
The formation of acid metabolite was monitored and quantified using one calibration point of 1 μM. The observed rate constant (ke) for the acid metabolite formation was calculated by plotting the metabolite concentration versus time of incubation with the slope being ke and is shown in Table 4.

ke, observed rate constant for the acid metabolite formation | Structure (SMILES)
C (ke is greater than 2.5) | CC(C)c1cc(Cc2c(Cl)cc(SCC(=O)Nc3cccnn3)cc2Cl)ccc1O [Compound 174, 2-((3,5-dichloro-4-(4-hydroxy-3-isopropylbenzyl)phenyl)thio)-N-(pyridazin-3-yl)acetamide]
A (ke is equal to or less than 1.0) | CCNC(=O)CNc1cc(Cl)c(Cc2ccc(O)c(C(C)C)c2F)c(Cl)c1F [Compound 165, 2-((3,5-dichloro-2-fluoro-4-(2-fluoro-4-hydroxy-3-isopropylbenzyl)phenyl)amino)-N-ethylacetamide]
A (ke is equal to or less than 1.0) | CNC(=O)CNc1cc(C)c(Cc2ccc(O)c(C(C)C)c2F)c(Cl)c1 [Compound 235, 2-((3-chloro-4-(2-fluoro-4-hydroxy-3-isopropylbenzyl)-5-methylphenyl)amino)-N-methylacetamide]
A (ke is equal to or less than 1.0) | CC(C)c1cc(Cc2c(Cl)cc(SCC(=O)N3CCCC3)cc2Cl)ccc1O [Compound 182, 2-((3,5-dichloro-4-(4-hydroxy-3-isopropylbenzyl)phenyl)thio)-1-(pyrrolidin-1-yl)ethan-1-one]
C (ke is greater than 2.5) | Cc1cc(CSCC(=O)NC2CC2)cc(Cl)c1Cc1ccc(O)c(C(C)C)c1 [Compound 229, 2-((3-chloro-4-(4-hydroxy-3-isopropylbenzyl)-5-methylbenzyl)thio)-N-cyclopropylacetamide]
A (ke is equal to or less than 1.0) | CNC(=O)CNc1cc(Cl)c(Cc2ccc(O)c(C(C)C)c2)c(Cl)c1 [Compound 175, 2-((3,5-dichloro-4-(4-hydroxy-3-isopropylbenzyl)phenyl)amino)-N-methylacetamide]
A (ke is equal to or less than 1.0) | CNC(=O)CNc1cc(Cl)c(Cc2ccc(O)c(C(C)C)c2F)c(Cl)c1 [Compound 47, 2-((3,5-dichloro-4-(2-fluoro-4-hydroxy-3-isopropylbenzyl)phenyl)amino)-N-methylacetamide]
NC | CC(C)c1cc(Cc2c(Cl)cc(SCC(=O)N(C)C)cc2Cl)ccc1O [Compound 194, 2-((3,5-dichloro-4-(4-hydroxy-3-isopropylbenzyl)phenyl)thio)-N,N-dimethylacetamide]
A (ke is equal to or less than 1.0) | CCNC(=O)CSc1cc(Cl)c(Cc2ccc(O)c(C(C)C)c2F)c(Cl)c1 [Compound 187, 2-((3,5-dichloro-4-(2-fluoro-4-hydroxy-3-isopropylbenzyl)phenyl)thio)-N-ethylacetamide]
C (ke is greater than 2.5) | CC(C)c1c(O)ccc(Cc2c(Cl)cc(NCC(=O)Nc3ccnnc3)c(F)c2Cl)c1F [Compound 162, 2-((3,5-dichloro-2-fluoro-4-(2-fluoro-4-hydroxy-3-isopropylbenzyl)phenyl)amino)-N-(pyridazin-4-yl)acetamide]
A (ke is equal to or less than 1.0) | CNC(=O)CNc1cc(C)c(Cc2ccc(O)c(C(C)C)c2)c(Cl)c1F [Compound 135, 2-((3-chloro-2-fluoro-4-(4-hydroxy-3-isopropylbenzyl)-5-methylphenyl)amino)-N-methylacetamide]
A (ke is equal to or less than 1.0) | Cc1cc(CSCC(=O)N(C)C)cc(Cl)c1Cc1ccc(O)c(C(C)C)c1 [Compound 231, 2-((3-chloro-4-(4-hydroxy-3-isopropylbenzyl)-5-methylbenzyl)thio)-N,N-dimethylacetamide]
NC | CNC(=O)/C=C/c1cc(Cl)c(Cc2ccc(O)c(C(C)C)c2F)c(Cl)c1 [Compound 115, (E)-3-(3,5-dichloro-4-(2-fluoro-4-hydroxy-3-isopropylbenzyl)phenyl)-N-methylacrylamide]
NC | CNC(=O)CSCc1cc(Cl)c(Cc2ccc(O)c(C(C)C)c2)c(Cl)c1 [Compound 193, 2-((3,5-dichloro-4-(4-hydroxy-3-isopropylbenzyl)benzyl)thio)-N-methylacetamide]
A (ke is equal to or less than 1.0) | CNC(=O)CNc1cc(Cl)c(Cc2ccc(O)c(C(C)C)c2)c(C)c1F [Compound 216, 2-((5-chloro-2-fluoro-4-(4-hydroxy-3-isopropylbenzyl)-3-methylphenyl)amino)-N-methylacetamide]
A (ke is equal to or less than 1.0) | CNC(=O)/C(C)=C/c1cc(Cl)c(Cc2ccc(O)c(C(C)C)c2F)c(Cl)c1 [Compound 146, (E)-3-(3,5-dichloro-4-(2-fluoro-4-hydroxy-3-isopropylbenzyl)phenyl)-N,2-dimethylacrylamide]
A (ke is equal to or less than 1.0) | CNC(=O)CNCc1cc(Cl)c(Cc2ccc(O)c(C(C)C)c2)c(Cl)c1 [Compound 111, 2-((3,5-dichloro-4-(4-hydroxy-3-isopropylbenzyl)benzyl)amino)-N-methylacetamide]
A (ke is equal to or less than 1.0) | CC(C)c1cc(Cc2c(Cl)cc(SCC(=O)N3CCC3)cc2Cl)ccc1O [Compound 183, 1-(azetidin-1-yl)-2-((3,5-dichloro-4-(4-hydroxy-3-isopropylbenzyl)phenyl)thio)ethan-1-one]
A (ke is equal to or less than 1.0) | CC(C)c1cc(Cc2c(Cl)cc(SCC(=O)NCc3ccccc3)cc2Cl)ccc1O [Compound 184, N-benzyl-2-((3,5-dichloro-4-(4-hydroxy-3-isopropylbenzyl)phenyl)thio)acetamide]

Structure (SMILES) | ke, observed rate constant for the acid metabolite formation
CC(C)c1c(O)ccc(Cc2c(Cl)cc(NCC(=O)Nc3cccnn3)c(F)c2Cl)c1F [Compound 157, 2-((3,5-dichloro-2-fluoro-4-(2-fluoro-4-hydroxy-3-isopropylbenzyl)phenyl)amino)-N-(pyridazin-3-yl)acetamide] | B (ke is greater than 1.0 and less than or equal to 2.5)
CC(C)c1c(O)ccc(Cc2c(Cl)cc(NCC(=O)Nc3ccncc3)c(F)c2Cl)c1F [Compound 161, 2-((3,5-dichloro-2-fluoro-4-(2-fluoro-4-hydroxy-3-isopropylbenzyl)phenyl)amino)-N-(pyridin-4-yl)acetamide] | B (ke is greater than 1.0 and less than or equal to 2.5)
COc1ccc(NC(=O)CNc2cc(Cl)c(Cc3ccc(O)c(C(C)C)c3F)c(Cl)c2F)nn1 [Compound 159, 2-((3,5-dichloro-2-fluoro-4-(2-fluoro-4-hydroxy-3-isopropylbenzyl)phenyl)amino)-N-(6-methoxypyridazin-3-yl)acetamide] | B (ke is greater than 1.0 and less than or equal to 2.5)
CNC(=O)CCc1cc(C)c(Cc2ccc(O)c(C(C)C)c2F)c(Cl)c1 [Compound 236, 3-(3-chloro-4-(2-fluoro-4-hydroxy-3-isopropylbenzyl)-5-methylphenyl)-N-methylpropanamide] | B (ke is greater than 1.0 and less than or equal to 2.5)
